Assay results published in ChEMBL document CHEMBL5291721, “A preclinical secondary pharmacology resource illuminates target-adverse drug reaction associations of marketed drugs” (Nat Commun, 2023).

Legend:
Vasopressin V1a receptor = Vasopressin V1a receptor (Homo sapiens, UniProt P37288)
Vasopressin V2 receptor = Vasopressin V2 receptor (Homo sapiens, UniProt P30518)
[1] = target: T1, Muscarinic acetylcholine receptor M2 (Homo sapiens, UniProt P08172); type: functional, cell-based
T1 sequence (P08172 whole entry): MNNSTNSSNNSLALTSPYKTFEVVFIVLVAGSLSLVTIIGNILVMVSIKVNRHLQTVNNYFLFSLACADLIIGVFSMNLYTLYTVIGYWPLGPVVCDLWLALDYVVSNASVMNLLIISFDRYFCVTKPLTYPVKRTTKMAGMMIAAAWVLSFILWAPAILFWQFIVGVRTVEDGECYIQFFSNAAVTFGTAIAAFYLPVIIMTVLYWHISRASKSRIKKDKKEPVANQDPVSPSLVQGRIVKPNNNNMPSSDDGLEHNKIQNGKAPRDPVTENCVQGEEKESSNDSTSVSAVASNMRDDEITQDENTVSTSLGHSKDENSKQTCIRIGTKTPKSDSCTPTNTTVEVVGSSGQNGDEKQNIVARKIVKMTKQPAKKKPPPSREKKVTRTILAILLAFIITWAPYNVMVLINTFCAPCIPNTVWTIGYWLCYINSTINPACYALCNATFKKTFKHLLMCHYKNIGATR

[2] = target: Growth hormone secretagogue receptor type 1 (Homo sapiens, UniProt Q92847)
Chain of Growth hormone secretagogue receptor type 1 (Q92847 whole entry): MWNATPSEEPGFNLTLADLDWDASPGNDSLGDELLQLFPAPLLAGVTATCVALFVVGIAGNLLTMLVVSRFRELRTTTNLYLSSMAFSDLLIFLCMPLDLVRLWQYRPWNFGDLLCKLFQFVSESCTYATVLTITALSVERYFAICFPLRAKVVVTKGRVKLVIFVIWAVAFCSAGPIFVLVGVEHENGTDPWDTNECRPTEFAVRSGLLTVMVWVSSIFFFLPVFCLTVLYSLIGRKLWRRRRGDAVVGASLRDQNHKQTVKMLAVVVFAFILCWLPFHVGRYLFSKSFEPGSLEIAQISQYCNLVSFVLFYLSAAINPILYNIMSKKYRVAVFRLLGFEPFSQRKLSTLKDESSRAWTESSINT

[3] = target: 3',5'-cyclic-AMP phosphodiesterase 4D (Homo sapiens, UniProt Q08499); type: functional
Chain of 3',5'-cyclic-AMP phosphodiesterase 4D (Q08499 whole entry): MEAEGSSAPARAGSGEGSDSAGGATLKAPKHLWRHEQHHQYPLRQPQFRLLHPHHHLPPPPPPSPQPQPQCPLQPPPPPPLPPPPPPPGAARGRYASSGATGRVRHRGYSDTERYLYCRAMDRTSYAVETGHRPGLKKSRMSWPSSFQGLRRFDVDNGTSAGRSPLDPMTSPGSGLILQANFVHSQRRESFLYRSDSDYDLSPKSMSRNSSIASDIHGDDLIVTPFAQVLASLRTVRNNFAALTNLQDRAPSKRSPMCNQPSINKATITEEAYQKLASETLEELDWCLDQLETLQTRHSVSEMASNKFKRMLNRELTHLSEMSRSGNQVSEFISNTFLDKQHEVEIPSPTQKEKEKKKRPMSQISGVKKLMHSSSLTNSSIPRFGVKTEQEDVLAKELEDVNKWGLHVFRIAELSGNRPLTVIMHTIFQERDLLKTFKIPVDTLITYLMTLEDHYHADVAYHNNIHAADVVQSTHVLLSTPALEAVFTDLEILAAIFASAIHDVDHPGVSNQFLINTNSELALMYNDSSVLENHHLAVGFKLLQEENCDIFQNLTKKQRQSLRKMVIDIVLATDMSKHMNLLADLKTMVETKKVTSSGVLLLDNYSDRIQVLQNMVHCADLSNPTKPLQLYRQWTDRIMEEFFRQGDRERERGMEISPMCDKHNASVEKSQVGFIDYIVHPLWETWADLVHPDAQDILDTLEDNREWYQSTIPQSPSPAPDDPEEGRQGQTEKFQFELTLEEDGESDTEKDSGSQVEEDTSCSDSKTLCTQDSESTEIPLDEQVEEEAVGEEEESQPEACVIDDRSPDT

[4] = target: T2, Equilibrative nucleoside transporter 1 (Homo sapiens, UniProt Q99808)
T2 sequence (Q99808 whole entry): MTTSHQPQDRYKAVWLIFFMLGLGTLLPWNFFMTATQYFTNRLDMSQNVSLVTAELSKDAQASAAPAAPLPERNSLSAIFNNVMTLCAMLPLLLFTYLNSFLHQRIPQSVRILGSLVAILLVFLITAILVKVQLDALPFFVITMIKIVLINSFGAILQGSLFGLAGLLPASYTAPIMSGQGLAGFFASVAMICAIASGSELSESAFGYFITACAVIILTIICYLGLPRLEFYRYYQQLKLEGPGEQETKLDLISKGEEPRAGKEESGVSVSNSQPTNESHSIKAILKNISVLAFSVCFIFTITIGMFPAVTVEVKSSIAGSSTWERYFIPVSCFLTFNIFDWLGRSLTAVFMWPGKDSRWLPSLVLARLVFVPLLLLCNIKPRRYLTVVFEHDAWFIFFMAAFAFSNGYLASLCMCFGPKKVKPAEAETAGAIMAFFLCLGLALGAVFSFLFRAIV

[5] = target: T3, Amine oxidase [flavin-containing] A (Homo sapiens, UniProt P21397); type: functional
T3 sequence (P21397 whole entry): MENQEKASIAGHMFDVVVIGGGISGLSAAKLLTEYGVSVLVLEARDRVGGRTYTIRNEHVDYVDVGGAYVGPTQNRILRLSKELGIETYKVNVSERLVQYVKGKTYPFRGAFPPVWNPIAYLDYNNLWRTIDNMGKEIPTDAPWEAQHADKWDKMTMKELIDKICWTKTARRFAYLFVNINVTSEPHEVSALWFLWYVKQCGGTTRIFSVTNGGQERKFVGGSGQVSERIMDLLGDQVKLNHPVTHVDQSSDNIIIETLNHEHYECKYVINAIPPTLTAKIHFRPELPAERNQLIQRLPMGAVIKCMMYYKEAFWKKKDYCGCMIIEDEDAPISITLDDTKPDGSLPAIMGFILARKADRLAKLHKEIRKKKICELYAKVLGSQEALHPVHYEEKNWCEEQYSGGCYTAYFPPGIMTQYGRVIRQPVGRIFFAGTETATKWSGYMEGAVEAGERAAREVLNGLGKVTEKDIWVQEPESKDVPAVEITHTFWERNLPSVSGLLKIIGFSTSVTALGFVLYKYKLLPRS
Also: assay procedure not described here.

Chain of Vasopressin V1a receptor (P37288 whole entry): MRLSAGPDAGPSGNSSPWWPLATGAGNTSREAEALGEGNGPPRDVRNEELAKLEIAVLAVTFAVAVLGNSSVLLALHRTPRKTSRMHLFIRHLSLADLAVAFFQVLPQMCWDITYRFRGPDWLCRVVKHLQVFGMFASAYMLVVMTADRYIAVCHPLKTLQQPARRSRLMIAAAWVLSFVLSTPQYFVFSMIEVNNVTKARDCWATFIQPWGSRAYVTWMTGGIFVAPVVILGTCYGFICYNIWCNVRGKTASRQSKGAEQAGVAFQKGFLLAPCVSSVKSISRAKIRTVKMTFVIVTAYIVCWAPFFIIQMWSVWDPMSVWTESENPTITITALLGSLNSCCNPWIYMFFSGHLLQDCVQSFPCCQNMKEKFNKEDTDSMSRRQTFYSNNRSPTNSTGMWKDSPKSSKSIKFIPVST
Chain of Vasopressin V2 receptor (P30518 whole entry): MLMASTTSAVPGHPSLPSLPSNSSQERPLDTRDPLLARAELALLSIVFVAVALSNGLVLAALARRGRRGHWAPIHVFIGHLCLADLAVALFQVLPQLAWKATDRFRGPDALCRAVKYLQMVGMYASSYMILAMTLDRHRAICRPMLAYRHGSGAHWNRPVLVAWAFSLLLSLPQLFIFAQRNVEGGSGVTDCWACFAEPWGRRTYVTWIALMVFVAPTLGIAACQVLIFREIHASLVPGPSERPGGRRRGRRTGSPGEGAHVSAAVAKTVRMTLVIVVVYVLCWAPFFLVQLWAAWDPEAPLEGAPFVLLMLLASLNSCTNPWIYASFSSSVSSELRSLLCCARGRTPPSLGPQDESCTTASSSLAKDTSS

Row | Compound | AC50 (Vasopressin V2 receptor) | AC50 [1] | AC50 [2] | AC50 [3] | AC50 [4] | AC50 [5] | AC50 (Vasopressin V1a receptor)
1 | CCOc1cc([C@@H](CS(C)(=O)=O)N2C(=O)c3cccc(NC(C)=O)c3C2=O)ccc1OC |  | > 30 µM | > 30 µM |  | > 30 µM | > 30 µM | > 30 µM
2 | Cc1nnc(SCC2=C(C(=O)O)N3C(=O)[C@@H](NC(=O)Cn4cnnn4)[C@H]3SC2)s1 [CEFAZOLIN] | > 30 µM | > 300 µM | > 300 µM | > 300 µM | > 300 µM | > 300 µM | > 300 µM
3 | CC(C)(O/N=C(\C(=O)N[C@@H]1C(=O)N2C(C(=O)[O-])=C(C[n+]3ccccc3)CS[C@H]12)c1csc(N)n1)C(=O)O [CEFTAZIDIME] | > 30 µM | > 300 µM | > 300 µM | > 300 µM | > 300 µM | > 300 µM | > 300 µM
4 | Clc1ccc(Cn2c(CN3CCCC3)nc3ccccc32)cc1 [CLEMIZOLE] |  | > 10 µM | > 30 µM | 28 µM | > 30 µM | > 30 µM | > 30 µM
5 | Cc1onc(-c2c(F)cccc2Cl)c1C(=O)N[C@@H]1C(=O)N2[C@@H]1SC(C)(C)[C@@H]2C(=O)O [FLOXACILLIN] |  | > 30 µM | > 30 µM | > 30 µM | > 30 µM | > 30 µM | > 30 µM
6 | CNC(=C[N+](=O)[O-])NCCSCc1csc(CN(C)C)n1 [NIZATIDINE] | > 10 µM | > 10 µM | > 10 µM | > 30 µM | > 10 µM | > 10 µM | 
7 | S=P(N1CC1)(N1CC1)N1CC1 [THIOTEPA] |  |  | > 30 µM | > 30 µM | > 30 µM | > 30 µM | > 30 µM

Further lines, with some results ahead:

Row | AC50 (Vasopressin V2 receptor) | AC50 [1] | AC50 [2] | AC50 [3] | AC50 [4] | AC50 [5] | Compound | AC50 (Vasopressin V1a receptor)
8 | > 30 µM | > 30 µM | > 30 µM | > 30 µM | > 30 µM | > 30 µM | CCOc1nc2cccc(C(=O)O)c2n1Cc1ccc(-c2ccccc2-c2nnn[nH]2)cc1 | > 30 µM
9 | > 30 µM | > 30 µM | > 30 µM | > 30 µM | > 30 µM | > 30 µM | CC(=O)Nc1ccc(CC(=O)O)cc1 [ACTARIT] | > 30 µM
10 | > 30 µM | > 30 µM | > 30 µM | > 30 µM | > 30 µM | 26 µM | CC(C(=O)O)c1ccc2oc(-c3ccc(Cl)cc3)nc2c1 (centres undefined) [BENOXAPROFEN] | 
11 | > 30 µM | > 30 µM | > 30 µM | > 30 µM | > 30 µM | > 30 µM | CC1(C)S[C@@H]2[C@H](NC(=O)C(C(=O)O)c3ccccc3)C(=O)N2[C@H]1C(=O)O (some centres undefined) [CARBENICILLIN] | > 30 µM
12 | > 30 µM | > 30 µM | > 30 µM | > 30 µM | > 30 µM | > 30 µM | CC=CC1=C(C(=O)O)N2C(=O)[C@@H](NC(=O)[C@H](N)c3ccc(O)cc3)[C@H]2SC1 [CEFPROZIL] | > 30 µM
13 | > 30 µM | > 30 µM | > 30 µM | > 30 µM | > 30 µM | > 30 µM | CCC(=O)O[C@]1(C(=O)CCl)[C@@H](C)C[C@H]2[C@@H]3CCC4=CC(=O)C=C[C@]4(C)[C@@]3(F)[C@@H](O)C[C@@]21C [CLOBETASOL PROPIONATE] | 
14 |  | > 30 µM | > 30 µM | > 30 µM | > 30 µM | > 30 µM | CC(C)Cc1ccc([C@H](C)C(=O)O)cc1 [DEXIBUPROFEN] | > 30 µM
15 |  | > 30 µM | > 30 µM | > 30 µM | > 30 µM | > 30 µM | CNC[C@H](O)c1ccc(O)c(O)c1 [EPINEPHRINE] | 
16 | > 10 µM |  | > 10 µM | 5.4 µM | > 10 µM | > 10 µM | COc1cc(C(=O)NS(=O)(=O)c2ccccc2C)ccc1Cc1cn(C)c2ccc(NC(=O)OC3CCCC3)cc12 [ZAFIRLUKAST] | > 10 µM
